Results on ten compounds are retold here after US10266497B2 (ABIDE THERAPEUTICS, INC., priority 2017, dated 2019).

Experiment [1] addresses T1, MAGL (Mus musculus, UniProt O35678).
T1 sequence (O35678 1-303): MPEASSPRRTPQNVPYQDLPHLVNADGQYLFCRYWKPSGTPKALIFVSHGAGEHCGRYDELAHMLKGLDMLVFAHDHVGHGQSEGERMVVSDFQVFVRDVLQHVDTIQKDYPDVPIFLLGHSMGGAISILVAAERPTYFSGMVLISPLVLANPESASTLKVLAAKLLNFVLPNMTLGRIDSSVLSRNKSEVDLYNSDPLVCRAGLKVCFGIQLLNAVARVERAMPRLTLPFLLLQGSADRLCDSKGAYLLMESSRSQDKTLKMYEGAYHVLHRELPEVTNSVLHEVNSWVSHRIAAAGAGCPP
Briefly: Mouse brain proteomes from inhibitor treated mice (oral gavage, sacrificed 4 h after administration). Details: mouse brain membrane fraction for mouse assays; from tissue; host or cells: mouse brain (membrane fraction in vitro; brain proteomes of treated C57Bl/6J mice in vivo). As to conditions: 5 mg/kg oral gavage, brain proteome 4 h after administration, read-out: MAGL % inh. 5 mg/kg (mouse). It is filed as in vivo.

The target in experiment [2] is T1, MAGL. Briefly: In vitro competitive activity-based protein profiling, MAGL, mouse. The following applies: read-out: MAGL % inh. 1 μM (mouse).
Experiment [3] deals with T2, MAGL (Homo sapiens, UniProt Q99685).
T2 sequence (Q99685 1-303): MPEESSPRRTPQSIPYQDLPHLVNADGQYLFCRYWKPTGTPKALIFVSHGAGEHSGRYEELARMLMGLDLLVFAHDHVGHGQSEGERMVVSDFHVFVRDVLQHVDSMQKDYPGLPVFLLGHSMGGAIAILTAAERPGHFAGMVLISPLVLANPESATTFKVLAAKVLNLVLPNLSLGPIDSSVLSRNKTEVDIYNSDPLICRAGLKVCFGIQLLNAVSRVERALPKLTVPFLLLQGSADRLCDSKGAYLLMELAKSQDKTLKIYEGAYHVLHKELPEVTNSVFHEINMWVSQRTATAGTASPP
Nature of the experiment: In vitro competitive activity-based protein profiling, MAGL, human. The following applies: read-out: MAGL % inh. 1 μM (human).

Read-outs that look alike come from different tables or passages of the source.

Turning to `C[C@@H]1CC[C@@H](C)N1c1cc(C(F)(F)F)ccc1CN1CCN(C(=O)n2ccc(C(=O)O)n2)CC1` [Example 359, 1-(4-(2-((2R,5R)-2,5-dimethylpyrrolidin-1-yl)-4-(trifluoromethyl)benzyl)piperazine-1-carbonyl)-1H-pyrazole-3-carboxylic acid], at MAGL [1], the inhibition at 5 mg/kg lay within 0 to 25%. Moreover, the inhibition at 1 µM at MAGL [2] and on MAGL [3] was over 75% each time.
As to `O=C(O)c1ccn(C(=O)N2CCC(Oc3ccc(C(F)(F)F)cc3N3CCCC3)CC2)n1` [Example 307, 1-(4-(2-(pyrrolidin-1-yl)-4-(trifluoromethyl)phenoxy)piperidine-1-carbonyl)-1H-pyrazole-3-carboxylic acid], on MAGL [1], the inhibition at 5 mg/kg fell in the range of 0 to 25%. Besides, the inhibition at 1 µM at MAGL [2] and on MAGL [3] was over 75% in each case.
In the case of `C[C@@H]1C[C@H](N(C)Cc2cccc(C(F)(F)F)c2)CCN1C(=O)n1ccc(C(N)=O)n1` [Example 257, 1-((2R,4R)-2-methyl-4-(methyl(3-(trifluoromethyl)benzyl)amino)piper-idine-1-carbonyl)-1H-pyrazole-3-carboxamide], at MAGL [1], the inhibition at 5 mg/kg is over 75%. Moreover, the inhibition at 1 µM on MAGL [2] and at MAGL [3] was over 75% in each case.
For the compound `O=C(O)c1ccn(C(=O)N2CCC3(CCCN3C(=O)c3ccc(C(F)(F)F)cc3N3CCCC3)CC2)n1` [Example 403, 1-(1-(2-(pyrrolidin-1-yl)-4-(trifluoromethyl)benzoyl)-1,8-diazaspiro[4.5]decane-8-carbonyl)-1H-pyrazole-3-carboxylic acid], the inhibition at 5 mg/kg on MAGL [1] (C57Bl/6J mice) fell in the range of 0 to 25%. The inhibition at 1 µM on MAGL [2] and on MAGL [3] was over 75% in each case.
On to `C[C@@H]1CN(Cc2ccc(-c3ccccc3)cc2Cl)CCN1C(=O)n1ccc(C(=O)O)n1` [Example 291, (R)-1-(4-((3-chloro-[1,1′-biphenyl]-4-yl)methyl)-2-methylpiperazine-1-carbonyl)-1H-pyrazole-3-carboxylic acid], for which, at MAGL [1], the inhibition at 5 mg/kg lay in the range of 25 to 50%. The inhibition at 1 µM at MAGL [2] and on MAGL [3] was over 75% each time.
`CNC(=O)c1ccn(C(=O)N2CC3CN(Cc4ccc(Cl)cc4)CC3C2)n1` (stereo not drawn) [Example 424, 1-(5-(4-chlorobenzyl)octahydropyrrolo [3,4-c]pyrrole-2-carbonyl)-N-methyl-1H-pyrazole-3-carboxamide]: the inhibition at 5 mg/kg on MAGL [1] (C57Bl/6J mice) is over 75%. In addition, the inhibition at 1 µM at MAGL [2] was over 75%.
With `CC(C)c1cccc(O[C@H]2C[C@@H]3CN(C(=O)n4ccc(C(=O)O)n4)C[C@@H]3C2)c1` [Example 220, 1-(trans-5-(3-isopropylphenoxy)ocatahydrocyclo-penta[c]pyrrole-2-carbonyl)-1H-pyrazole-3-carboxylic acid], the inhibition at 5 mg/kg at MAGL [1] is 25 to 50%. Further, the inhibition at 1 µM at MAGL [2] and at MAGL [3] was over 75% throughout.
Turning to `O=C(O)c1ccn(C(=O)N2CCC(Oc3cc(N4CCCC4)cc(C(F)(F)F)c3)CC2)n1` [Example 308, 1-(4-(3-(pyrrolidin-1-yl)-5-(trifluoromethyl)phenoxy)piperidine-1-carbonyl)-1H-pyrazole-3-carboxylic acid], the inhibition at 5 mg/kg at MAGL [1] was in the range of 0 to 25%. Moreover, the inhibition at 1 µM on MAGL [2] and on MAGL [3] was over 75% in each case.
For the compound `NC(=O)c1ccn(C(=O)N2CCC3(CCN(Cc4cc(Cl)cc(C(F)(F)F)c4)C3)C2)n1` (stereo not drawn) [Example 433, 1-(7-(3-chloro-5-(trifluoromethyl)benzyl)-2,7-diazaspiro[4.4]non-ane-2-carbonyl)-1H-pyrazole-3-carboxamide], the inhibition at 5 mg/kg at MAGL [1] (C57Bl/6J mice) was over 75%. The inhibition at 1 µM on MAGL [2] is over 75%.
For the compound `NC(=O)c1ccn(C(=O)N2CCC3(CCN(Cc4cc(Cl)ccc4Cl)C3)C2)n1` (stereo not drawn) [Example 426, 1-(7-(2,5-dichlorobenzyl)-2,7-diazaspiro[4.4]non-ane-2-carbonyl)-1H-pyrazole-3-carboxamide], the inhibition at 5 mg/kg on MAGL [1] (C57Bl/6J mice) was over 75%. Besides, the inhibition at 1 µM at MAGL [2] was over 75%.
